Results as given in patent US20150259344A1, “IMIDAZOLE DERIVATIVE” (DAINIPPON SUMITOMO PHARMA CO., LTD., priority 2012, published 2015).

Molecular target: T1, human α7 nAChR (Homo sapiens, UniProt P36544)
T1 construct: expressed in transfected cells
Assay: Evaluation of PAM activity with human α7 nACh receptor stably expressing cells (aequorin luminescence, FDSS7000)
Assay type: cell-based
Settings: for activity at 10 µM: 10 μM test compound, read-out: α7PAM (%) @10 μM; for activity at 10 µM / activity at 1 µM: ACh at EC20, ratio of RLU (Max-Min) to control wells; for activity at 1 µM: 1 μM test compound (values marked *, footnote of Table 25), read-out: α7PAM (%) @1 μM; for PAM activity for α7 nAChR (in words): comparison across Tables 18 to 25
How it was run: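 Human α7 nAChR stable cells loaded with 4 μM Viviren (final) for 4 h at room temperature in the dark. Compounds in Hanks/20 mM HEPES/0.2% BSA were added and luminescence recorded on FDSS7000. PAM activity = RLU (Max-Min) ratio of test wells to control wells.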

T1 sequence (P36544 23-502): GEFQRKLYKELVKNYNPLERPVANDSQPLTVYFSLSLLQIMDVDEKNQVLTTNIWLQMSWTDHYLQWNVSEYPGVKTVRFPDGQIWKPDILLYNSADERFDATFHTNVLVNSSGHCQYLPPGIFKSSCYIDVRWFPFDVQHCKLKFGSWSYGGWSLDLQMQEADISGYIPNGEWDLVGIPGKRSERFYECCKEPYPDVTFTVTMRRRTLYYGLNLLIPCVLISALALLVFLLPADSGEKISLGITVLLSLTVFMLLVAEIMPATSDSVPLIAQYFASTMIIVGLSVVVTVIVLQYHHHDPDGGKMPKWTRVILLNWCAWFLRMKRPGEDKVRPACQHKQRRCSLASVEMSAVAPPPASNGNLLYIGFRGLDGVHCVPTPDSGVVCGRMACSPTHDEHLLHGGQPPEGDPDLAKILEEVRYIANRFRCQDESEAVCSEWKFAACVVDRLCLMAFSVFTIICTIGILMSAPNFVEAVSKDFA

SMILES	activity at 10 µM [%]	further results
COc1ccc(-c2cn([C@H]3CC[C@@H](NC(=O)C(C)(C)F)CC3)cn2)c(F)c1 [Example 307]	634	–
COc1ccc(-c2cn([C@H]3CC[C@@H](NC(=O)C(C)(C)F)CC3)cn2)cc1Cl [Example 308]	513	–
COc1cc(-c2cn([C@H]3CC[C@@H](NC(=O)C(C)(C)F)CC3)cn2)ccc1Cl [Example 309]	–	activity at 1 µM: 181%
CC(C)(F)C(=O)N[C@H]1CC[C@@H](n2cnc(-c3ccc(F)c(F)c3)c2)CC1 [Example 310]	227	–
CC(C)(F)C(=O)N[C@H]1CC[C@@H](n2cnc(-c3ccccc3OC(F)(F)F)c2)CC1 [Example 311]	290	–
CC(C)(F)C(=O)N[C@H]1CC[C@@H](n2cnc(-c3ccc(F)c(F)c3F)c2)CC1 [Example 312]	662	–
CC(C)(F)C(=O)N[C@H]1CC[C@@H](n2cnc(-c3cc(F)c(F)cc3F)c2)CC1 [Example 313]	–	activity at 1 µM: 273%
CC(C)(F)C(=O)N[C@H]1CC[C@@H](n2cnc(-c3c(F)cc(F)cc3F)c2)CC1 [Example 314]	591	–
CC(C)(F)C(=O)N[C@H]1CC[C@@H](n2cnc(-c3c(F)cccc3F)c2)CC1 [Example 315]	501	–
CC(C)(F)C(=O)N[C@H]1CC[C@@H](n2cnc(-c3cc(F)c(Cl)cc3F)c2)CC1 [Example 316]	–	activity at 1 µM: 267%
CC(C)(F)C(=O)N[C@H]1CC[C@@H](n2cnc(-c3cc(F)c(F)cc3Cl)c2)CC1 [Example 317]	–	activity at 1 µM: 345%
CC(C)(F)C(=O)N[C@H]1CC[C@@H](n2cnc(-c3cc(Cl)c(F)cc3F)c2)CC1 [Example 318]	–	activity at 1 µM: 179%
COc1cc(F)c(-c2cn([C@H]3CC[C@@H](NC(=O)C(C)(C)F)CC3)cn2)cc1F [Example 319]	328	–
CC(C)(C)C(=O)N[C@H]1CC[C@@H](n2cnc(-c3ccc(OC(F)(F)F)cc3)c2Cl)CC1 [Example 321]	800	–
CC(C)(C)C(=O)N[C@H]1CC[C@@H](n2cnc(-c3ccc(Cl)cc3)c2Cl)CC1 [Example 322]	314	–
O=C(N[C@H]1CC[C@@H](n2cnc(-c3ccc(F)cc3)c2Cl)CC1)C1CCOCC1 [Example 323]	421	–
CC(C)(F)C(=O)N[C@H]1CC[C@@H](n2cnc(-c3ccc(OC(F)(F)F)c(F)c3)c2Cl)CC1 [Example 324]	860	–
CC(C)(F)C(=O)N[C@H]1CC[C@@H](n2cnc(-c3cccc(OC(F)(F)F)c3)c2Cl)CC1 [Example 325]	210	–
CC(C)(F)C(=O)N[C@H]1CC[C@@H](n2cnc(-c3cc(OC(F)(F)F)ccc3F)c2Cl)CC1 [Example 328]	–	activity at 1 µM: 859%
CC(C)(F)C(=O)N[C@H]1CC[C@@H](n2cnc(-c3cc(F)ccc3F)c2Cl)CC1 [Example 329]	643	–
CC(C)(F)C(=O)N[C@H]1CC[C@@H](n2cnc(-c3ccc(F)c(OC(F)(F)F)c3)c2Cl)CC1 [Example 330]	154	–
CC(C)(F)C(=O)N[C@H]1CC[C@@H](n2cnc(-c3ccccc3OC(F)(F)F)c2Cl)CC1 [Example 331]	–	activity at 1 µM: 467%
CC(C)(F)C(=O)N[C@H]1CC[C@@H](n2cnc(-c3ccc(F)cc3)c2C#N)CC1 [Example 332, N-{cis-4-[5-cyano-4-(4-fluorophenyl)-1H-imidazol-1-yl]cyclohexyl}-2-fluoro-2-methylpropanamide]	464	–

SMILES	activity at 10 µM [%]	further results
CC(C)(F)C(=O)N[C@H]1CC[C@@H](n2cnc(-c3ccc(Cl)cc3)c2C#N)CC1 [Example 333]	233	–
CC(C)(C)C(=O)N[C@H]1CC[C@@H](n2cnc(-c3ccc(Cl)cc3)c2C#N)CC1 [Example 334]	–	activity at 1 µM: 212%
N#Cc1c(-c2ccc(F)cc2)ncn1[C@H]1CC[C@@H](NC(=O)C2CCC(F)(F)CC2)CC1 [Example 335]	312	–
N#Cc1c(-c2ccc(F)cc2)ncn1[C@H]1CC[C@@H](NC(=O)C2CCOCC2)CC1 [Example 336]	557	–
CC(C)(F)C(=O)N[C@H]1CC[C@@H](n2cnc(-c3ccccc3F)c2C#N)CC1 [Example 337]	492	–
CC(C)(F)C(=O)N[C@H]1CC[C@@H](n2cnc(-c3cccc(F)c3)c2C#N)CC1 [Example 338]	192	–
CC(C)(F)C(=O)N[C@H]1CC[C@@H](n2cnc(-c3cccc(F)c3F)c2C#N)CC1 [Example 339]	351	–
CC(C)(F)C(=O)N[C@H]1CC[C@@H](n2cnc(-c3ccc(F)cc3F)c2C#N)CC1 [Example 340]	377	–
CC(C)(F)C(=O)N[C@H]1CC[C@@H](n2cnc(-c3cc(F)ccc3F)c2C#N)CC1 [Example 341]	233	–
CC(C)(F)C(=O)N[C@H]1CC[C@@H](n2cnc(-c3ccc(F)c(F)c3)c2C#N)CC1 [Example 342]	369	–
CC(C)(F)C(=O)N[C@H]1CC[C@@H](n2cnc(-c3cc(F)cc(F)c3)c2C#N)CC1 [Example 343]	–	activity at 1 µM: 380%
CC(C)(F)C(=O)N[C@H]1CC[C@@H](n2cnc(-c3ccccc3OC(F)(F)F)c2C#N)CC1 [Example 344]	220	–
CC(C)(F)C(=O)N[C@H]1CC[C@@H](n2cnc(-c3cccc(OC(F)(F)F)c3)c2C#N)CC1 [Example 345]	153	–
CC(C)(F)C(=O)N[C@H]1CC[C@@H](n2cnc(-c3ccc(OC(F)(F)F)cc3)c2C#N)CC1 [Example 346]	169	–
CC(C)(F)C(=O)N[C@H]1CC[C@@H](n2cnc(-c3ccc(OC(F)(F)F)cc3F)c2C#N)CC1 [Example 347]	130	–
CC(C)(F)C(=O)N[C@H]1CC[C@@H](n2cnc(-c3ccc(OC(F)(F)F)c(F)c3)c2C#N)CC1 [Example 348]	131	–
CC(C)(F)C(=O)N[C@H]1CC[C@@H](n2cnc(-c3cc(OC(F)(F)F)ccc3F)c2C#N)CC1 [Example 349]	290	–
CC(C)(F)C(=O)N[C@H]1CC[C@@H](n2cnc(-c3ccc(F)c(OC(F)(F)F)c3)c2C#N)CC1 [Example 350]	–	activity at 1 µM: 670%
Cc1c(-c2ccc(F)cc2)ncn1[C@H]1CC[C@@H](NC(=O)C(C)(C)F)CC1 [Example 351]	540	–
Cc1c(-c2ccc(F)cc2)ncn1[C@H]1CC[C@@H](NC(=O)C2CCOCC2)CC1 [Example 352]	164	–
Cc1c(-c2ccc(F)cc2)ncn1[C@H]1CC[C@@H](NC(=O)C2CCC(F)(F)CC2)CC1 [Example 353]	518	–
Cc1c(-c2ccc(F)cc2)ncn1[C@H]1CC[C@@H](NC(=O)C(C)(C)C)CC1 [Example 354]	230	–
O=C(NC1CCOCC1)[C@H]1CC[C@@H](n2cnc(-c3cccc(F)c3)c2)CC1 [Example 355]	–	activity at 1 µM: 118%

SMILES	activity at 10 µM [%]	further results
O=C(NC1CCOCC1)[C@H]1CC[C@@H](n2cnc(-c3ccccc3F)c2)CC1 [Example 356]	–	activity at 1 µM: 119%
O=C(NC1CCOCC1)[C@H]1CC[C@@H](n2cnc(-c3ccc(F)c(F)c3)c2)CC1 [Example 357]	–	activity at 1 µM: 130%
O=C(NC1CCOCC1)[C@H]1CC[C@@H](n2cnc(-c3cccc(F)c3F)c2)CC1 [Example 358]	–	activity at 1 µM: 126%
O=C(NC1CCOCC1)[C@H]1CC[C@@H](n2cnc(-c3cccc(F)c3)c2Cl)CC1 [Example 359]	581	–
O=C(NC1CCOCC1)[C@H]1CC[C@@H](n2cnc(-c3ccccc3F)c2Cl)CC1 [Example 360]	598	–
O=C(NC1COC1)[C@H]1CC[C@@H](n2cnc(-c3ccc(C(F)(F)F)cc3)c2Cl)CC1 [Example 361]	794	–
O=C(NC1CCOCC1)[C@H]1CC[C@@H](n2cnc(-c3cccc(Cl)c3)c2Cl)CC1 [Example 362]	–	PAM activity for α7 nAChR (in words): stronger PAM activity than others
O=C(NC1CCOCC1)[C@H]1CC[C@@H](n2cnc(-c3ccc(Cl)cc3)c2Cl)CC1 [Example 363]	–	PAM activity for α7 nAChR (in words): stronger PAM activity than others
O=C(NC1COC1)[C@H]1CC[C@@H](n2cnc(-c3ccc(F)cc3)c2Cl)CC1 [Example 364]	537	–
O=C(NC1CCOC1)[C@H]1CC[C@@H](n2cnc(-c3ccc(F)cc3)c2Cl)CC1 (some centres unmarked) [Example 366]	834	–
O=C(NC1CCOCC1)[C@H]1CC[C@@H](n2cnc(-c3cc(F)ccc3F)c2Cl)CC1 [Example 368]	941	–
O=C(NC1CCOCC1)[C@H]1CC[C@@H](n2cnc(-c3cccc(F)c3F)c2Cl)CC1 [Example 371]	962	–
N#Cc1c(-c2ccc(F)cc2)ncn1[C@H]1CC[C@@H](C(=O)NC2CCOCC2)CC1 [Example 373]	966	–
N#Cc1c(-c2cc(F)ccc2F)ncn1[C@H]1CC[C@@H](C(=O)NC2CCOCC2)CC1 [Example 375]	457	–
N#Cc1c(-c2cc(F)cc(F)c2)ncn1[C@H]1CC[C@@H](C(=O)NC2CCOCC2)CC1 [Example 376]	426	–
N#Cc1c(-c2ccc(C(F)(F)F)cc2)ncn1[C@H]1CC[C@@H](C(=O)NC2CCOCC2)CC1 [Example 377]	988	–
N#Cc1c(-c2ccc(OC(F)(F)F)cc2)ncn1[C@H]1CC[C@@H](C(=O)NC2CCOCC2)CC1 [Example 380]	–	PAM activity for α7 nAChR (in words): stronger PAM activity than others
Cc1c(-c2ccc(F)cc2)ncn1[C@H]1CC[C@@H](C(=O)NC2CCOCC2)CC1 [Example 381]	377	–
O=C(NC1CCCCC1)N1[C@@H]2CC[C@H]1C[C@@H](n1cnc(-c3ccc(F)cc3)c1)C2 [Example 382]	222	–
O=C(NC1CCCCC1)N1[C@@H]2CC[C@H]1C[C@@H](n1cnc(-c3ccccc3)c1)C2 [Example 383]	598	–
O=C(NC1CCC(F)(F)CC1)N1[C@@H]2CC[C@H]1C[C@@H](n1cnc(-c3ccc(F)cc3F)c1)C2 [Example 384]	–	activity at 1 µM: 652%
O=C(NC1CCCCC1)N1[C@@H]2CC[C@H]1C[C@@H](n1cnc(-c3ccc(F)cc3F)c1)C2 [Example 385]	–	activity at 1 µM: 218%
